Paper PMC7048775, “Single-molecule imaging of PI(4,5)P2 and PTEN in vitro reveals a positive feedback mechanism for PTEN membrane binding” (Communications Biology, 2020)

Experiments:
PTEN (PTEN-Halo) [1] = molecular target: T1, PTEN (PTEN-Halo) (Dictyostelium discoideum, UniProt Q8T9S7); assay: single-molecule TIRF imaging on supported planar lipid bilayer, dissociation curve; settings: 10 mol% PI(4,5)P2 in DOPC bilayer, pH 8.0, 300 mM NaCl, 21 °C; membrane dissociation of protein, two binding states; no affinity constant
T1 sequence (Q8T9S7 1-533): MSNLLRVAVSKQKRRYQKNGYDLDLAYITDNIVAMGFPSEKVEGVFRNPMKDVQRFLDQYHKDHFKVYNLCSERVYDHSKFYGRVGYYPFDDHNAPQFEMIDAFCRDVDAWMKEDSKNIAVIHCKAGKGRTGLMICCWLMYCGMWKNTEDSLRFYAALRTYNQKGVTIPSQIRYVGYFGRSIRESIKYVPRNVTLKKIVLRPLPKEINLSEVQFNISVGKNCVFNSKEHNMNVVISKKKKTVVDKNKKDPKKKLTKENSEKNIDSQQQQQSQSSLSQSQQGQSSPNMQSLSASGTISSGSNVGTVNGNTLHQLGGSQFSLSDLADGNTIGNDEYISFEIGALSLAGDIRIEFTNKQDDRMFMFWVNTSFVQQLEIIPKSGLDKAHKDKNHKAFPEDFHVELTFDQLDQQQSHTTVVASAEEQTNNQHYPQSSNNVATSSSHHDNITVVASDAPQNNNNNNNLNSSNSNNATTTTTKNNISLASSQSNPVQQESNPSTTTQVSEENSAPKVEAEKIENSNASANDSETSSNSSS

PTEN (PTEN-Halo) [2] = molecular target: T2, PTEN (PTEN-Halo) (Dictyostelium discoideum, UniProt Q8T9S7, R47A); assay: as above; assay type: binding; settings: 10 mol% PI(4,5)P2 in DOPC bilayer, pH 8.0, 300 mM NaCl, 21 °C
T2 sequence (Q8T9S7 whole entry R47A): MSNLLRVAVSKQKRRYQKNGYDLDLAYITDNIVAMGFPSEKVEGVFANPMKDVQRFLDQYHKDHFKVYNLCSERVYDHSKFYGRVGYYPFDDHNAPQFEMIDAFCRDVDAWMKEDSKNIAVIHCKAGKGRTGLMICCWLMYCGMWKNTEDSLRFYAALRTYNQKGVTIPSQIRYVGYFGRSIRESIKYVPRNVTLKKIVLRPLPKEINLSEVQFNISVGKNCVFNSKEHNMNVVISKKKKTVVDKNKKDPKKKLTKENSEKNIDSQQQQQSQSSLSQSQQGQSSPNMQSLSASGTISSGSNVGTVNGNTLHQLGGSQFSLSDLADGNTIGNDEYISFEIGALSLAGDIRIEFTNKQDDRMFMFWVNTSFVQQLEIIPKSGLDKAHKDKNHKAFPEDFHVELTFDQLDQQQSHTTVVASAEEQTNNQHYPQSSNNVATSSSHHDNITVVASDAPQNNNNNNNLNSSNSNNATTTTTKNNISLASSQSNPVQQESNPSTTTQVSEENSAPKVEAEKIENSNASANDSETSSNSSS

PTEN (PTEN-Halo) [3] = molecular target: T2, PTEN (PTEN-Halo); assay: phosphate release, BIOMOL Green, absorbance […] nm; assay type: biochemical; settings: 5 nmol substrate in 50 μL, pH 8.0, 2 mM DTT, 21 °C, 2 h
PTEN (PTEN-Halo) [4] = molecular target: PTEN (PTEN-Halo) (Dictyostelium discoideum, UniProt Q8T9S7, K11A/K13A/R14A/R15A); assay: phosphate release, BIOMOL Green, absorbance […] nm; assay type: biochemical; settings: 5 nmol substrate in 50 μL, pH 8.0, 2 mM DTT, 21 °C, 2 h
Chain of PTEN (PTEN-Halo) (Dictyostelium discoideum, UniProt Q8T9S7, K11A/K13A/R14A/R15A) (Q8T9S7 whole entry K11A/K13A/R14A/R15A): as the sequence (Q8T9S7 whole entry R47A) above, with K11A, K13A, R14A, R15A, A47R counted along it

Row | Structure (SMILES) | average dissociation rate constant k (PTEN (PTEN-Halo) [1]) [s⁻¹] | average dissociation rate constant k (PTEN (PTEN-Halo) [2]) | phosphate release, BIOMOL Green, absorbance 620 nm (PTEN (PTEN-Halo) [3]) | phosphate release, BIOMOL Green, absorbance 620 nm (PTEN (PTEN-Halo) [4])
1 | CCCCCCCC/C=C\CCCCCCCC(=O)OC[C@H](COP(=O)(O)O[C@@H]1[C@H](O)[C@H](O)[C@@H](OP(=O)(O)O)[C@H](OP(=O)(O)O)[C@H]1O)OC(=O)CCCCCCC/C=C\CCCCCCCC [PI(4,5)P2, 1,2-dioleoyl-sn-glycero-3-phospho-(1′-myo-inositol-4′,5′-bisphosphate)] | 15.9 ± 2.8 | both mutants exhibited faster dissociation than wild type | – | –
2 | CCCCCCCC(=O)OC[C@H](COP(=O)(O)O[C@H]1[C@H](O)[C@@H](OP(=O)(O)O)[C@H](OP(=O)(O)O)[C@@H](OP(=O)(O)O)[C@H]1O)OC(=O)CCCCCCC [diC8-PI(3,4,5)P3] | – | – | Phosphatase activities of the mutants were comparable to each other | Phosphatase activities of the mutants were comparable to each other
